{"source": "patent US6642256B2", "about": "“Piperidine derivatives as subtype selective N-Methyl-D-Aspartate antagonists” (Warner-Lambert Company LLC, priority 2000, dated 2003)", "note": "Counter-ions that a name gives are not always drawn."}
{"tested_on": "not given", "test": "not given", "details": "not given", "units": {"melting point": "°C"}}
{"smiles": "O=c1[nH]c2ccc(C3=NOC(CN4CC[C@@H](Cc5ccc(F)cc5)[C@@H](O)C4)C3)cc2o1", "note": "(stereo in doubt) (as salt: HCl) [Example 26, 6-{5-[4-(4-Fluorobenzyl)-3-hydroxypiperidin-1-ylmethyl]-4,5-dihydroisoxazol-3-yl}-3H-benzoxazol-2-one]", "melting point": "224 to 233"}
{"smiles": "CCOC(=O)C1(Cc2ccc(F)cc2)CCN(CC2CC(c3ccc4[nH]c(=O)oc4c3)=NO2)CC1", "note": "(centres unmarked) [Example 24, 4-(4-Fluorobenzyl)-1-[3-(2-oxo-2,3-dihydrobenzoxazol-6-yl)-4,5-dihydroisoxazol-5-ylmethyl]piperidine-4-carboxylic acid ethyl ester]", "melting point": "212 to 214"}
{"smiles": "O=c1[nH]c2ccc(C3=NOC(CN4CCC(C(O)c5ccc(F)cc5)CC4)C3)cc2o1", "note": "(centres unmarked) (as salt: HCl) [Example 31, 6-(5-{4-[(4-Fluorophenyl)hydroxymethyl]piperidin-1-ylmethyl}-4,5-dihydroisoxazol-3-yl)-3H-benzoxazol-2-one]", "melting point": "186 to 191"}
{"smiles": "O=c1[nH]c2ccc(C3=NOC(CN4CCC(O)(Cc5ccccc5)CC4)C3)cc2o1", "note": "(centres unmarked) (as salt: HCl) [Example 17, 6-[5-(4-Benzyl-4-hydroxypiperidin-1-ylmethyl)-4,5-dihydroisoxazol-3-yl]-3H-benzoxazol-2-one]", "melting point": "166 to 170"}
{"smiles": "COC(=O)C1(CN2CCC(Cc3ccc(F)cc3)CC2)CC(c2ccc3[nH]c(=O)oc3c2)=NO1", "note": "(centres unmarked) (as salt: salt) [Example 23, 5-[4-(4-Fluorobenzyl)piperidin-1-ylmethyl]-3-(2-oxo-2,3-dihydrobenzoxazol-6-yl)-4,5-dihydroisoxazole-5-carboxylic acid methyl ester]", "melting point": "146 to 155"}
{"smiles": "O=c1[nH]c2ccc(C3=NOC(CN4CCC(Cc5ccc(F)cc5)CC4)C3)cc2s1", "note": "(centres unmarked) (as salt: HCl) [Example 16]", "melting point": "271 to 276"}
{"smiles": "O=c1[nH]c2ccc(C3=NOC(CN4CCC([S+]([O-])c5ccc(F)cc5)CC4)C3)cc2o1", "note": "(centres unmarked) (as salt: HCl) [Example 29, 6-{5-[4-(4-Fluorobenzenesulfinyl)piperidin-1-ylmethyl]-4,5-dihydroisoxazol-3-yl}-3H-benzoxazol-2-one]", "melting point": "170 to 178"}
{"smiles": "O=c1[nH]c2ccc(C3=NOC(CCN4CCC(Cc5ccc(F)cc5)CC4)C3)cc2o1", "note": "(centres unmarked) (as salt: HCl) [Example 19, 6-(5-{2-[4-(4-Fluorobenzyl)piperidin-1-yl]ethyl}-4,5-dihydroisoxazol-3-yl)-3H-benzoxazol-2-one]", "melting point": "254 to 258"}
{"smiles": "O=c1[nH]c2ccc(C3=NOC(CN4CCC(O)(Cc5ccc(F)cc5)CC4)C3)cc2o1", "note": "(centres unmarked) (as salt: HCl) [Example 20, 6-{5-[4-(4-Fluorobenzyl)-4-hydroxypiperidin-1-ylmethyl]-4,5-dihydroisoxazol-3-yl}-3H-benzoxazol-2-one]", "melting point": "195 to 204"}
{"target": "T1, NR1A/NR2B NMDA receptor subtype (Rattus norvegicus, UniProt P35439+Q00960)", "T1 construct": "buffy coat membrane fraction was prepared from frozen adult rat forebrains; tissue Zivic-Miller Laboratories, Inc; host or cells: adult rat forebrain membranes", "T1 sequence (Q00960 27-1482, other chains not shown)": "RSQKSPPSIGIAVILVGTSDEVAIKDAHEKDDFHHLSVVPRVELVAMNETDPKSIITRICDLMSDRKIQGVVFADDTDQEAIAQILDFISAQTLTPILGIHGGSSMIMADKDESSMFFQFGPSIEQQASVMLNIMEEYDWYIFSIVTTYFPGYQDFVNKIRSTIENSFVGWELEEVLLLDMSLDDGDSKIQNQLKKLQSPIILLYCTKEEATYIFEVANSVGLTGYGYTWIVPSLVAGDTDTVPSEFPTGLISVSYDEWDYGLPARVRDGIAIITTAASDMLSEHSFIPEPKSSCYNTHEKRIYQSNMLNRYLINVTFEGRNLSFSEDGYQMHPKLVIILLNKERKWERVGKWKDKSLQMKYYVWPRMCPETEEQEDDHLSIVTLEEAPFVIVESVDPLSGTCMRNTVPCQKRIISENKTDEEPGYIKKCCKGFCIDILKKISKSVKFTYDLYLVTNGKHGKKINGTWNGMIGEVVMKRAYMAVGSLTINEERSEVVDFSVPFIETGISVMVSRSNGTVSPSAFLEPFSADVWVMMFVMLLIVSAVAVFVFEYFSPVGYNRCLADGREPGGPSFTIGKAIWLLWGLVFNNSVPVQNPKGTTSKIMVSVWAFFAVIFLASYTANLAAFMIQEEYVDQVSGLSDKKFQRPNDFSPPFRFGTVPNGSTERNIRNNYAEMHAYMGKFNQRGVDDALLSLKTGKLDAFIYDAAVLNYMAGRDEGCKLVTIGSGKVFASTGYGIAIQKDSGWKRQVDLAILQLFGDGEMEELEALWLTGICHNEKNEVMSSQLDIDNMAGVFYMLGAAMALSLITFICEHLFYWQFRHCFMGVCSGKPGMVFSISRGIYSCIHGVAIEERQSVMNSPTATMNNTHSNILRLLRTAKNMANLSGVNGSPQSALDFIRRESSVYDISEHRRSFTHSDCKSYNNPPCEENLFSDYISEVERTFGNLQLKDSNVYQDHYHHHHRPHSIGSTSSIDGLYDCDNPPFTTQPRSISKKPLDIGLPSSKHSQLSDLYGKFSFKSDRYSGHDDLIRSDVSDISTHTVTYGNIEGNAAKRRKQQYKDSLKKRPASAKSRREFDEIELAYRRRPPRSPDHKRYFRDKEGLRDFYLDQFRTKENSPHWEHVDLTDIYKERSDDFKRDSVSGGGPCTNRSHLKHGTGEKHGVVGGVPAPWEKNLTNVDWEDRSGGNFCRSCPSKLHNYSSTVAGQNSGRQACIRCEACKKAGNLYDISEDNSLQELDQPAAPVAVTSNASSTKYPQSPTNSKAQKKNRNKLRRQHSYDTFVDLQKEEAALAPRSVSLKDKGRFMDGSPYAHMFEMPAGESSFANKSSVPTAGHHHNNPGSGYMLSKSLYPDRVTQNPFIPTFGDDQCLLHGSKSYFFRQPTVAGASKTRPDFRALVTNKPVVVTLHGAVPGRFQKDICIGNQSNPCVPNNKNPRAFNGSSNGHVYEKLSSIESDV", "test": "[3H]Ifenprodil binding assay (IFPNR), rat forebrain membranes", "details": "Table 1, 4 nM [3H]-ifenprodil, read-out: IFPNR (IC50 μM)", "method": "(§1) b. [^3H]Ifenprodil Binding Assay (IFPNR) Protocol:\n(§2) Ifenprodil, [phenyl-^3H]-(specific activity, 66.2 Ci/mmol) was purchased from Dupont NEN Research Products (Boston, Mass.). Ifenprodil tartrate was purchased from Research Biochemicals International (Natick, Mass.). HEPES, glutamate and glycine were purchased from Sigma Chemical Co. (St. Louis, Mo.).\n(§3) All buffers and reagents used in assay incubations or to dissolve drugs were prepared using water purified through a Milli-Q reverse osmosis system (Millipore Corp., Bedford, Mass.) and treated with UV emissions. Prior to use in the assays buffers were further filtered through a sterile Coming filtration unit (Coming Glass Works, Coming, N.Y.) containing a 0.2 micron filter. Buffer used to rinse the membranes on the assay filters was prepared with purified water, but was not refiltered and was stored no longer than 5 days. Stock solutions of the drugs (usually 10 mM) were dissolved in 20 mM HEPES-KOH buffer pH 7.4 (assay buffer) with the addition of 1 to 5 μL of glacial AcOH, if needed to keep them in solution. Eliprodil was used as the reference NMDA antagonist. A stock solution of eliprodil was prepared, and was buffered with the addition of 10% DMSO. All subsequent dilutions from the stock solution were made in buffer.\n(§4) An extensively washed buffy coat membrane fraction was prepared from frozen adult rat forebrains (Zivic-Miller Laboratories, Inc., Zelienople, Pa.) as described by Coughenour L. L.; Cordon, J. J., J. Pharmacol. Exp. Ther., 1997;280:584-592, and stored at −80° C. On the day of the assay, pellets of the frozen membrane fractions were resuspended in 35 mL of assay buffer at pH 7.4 using a POLYTRON (Kinematica A. G. Company, Littau, Switzerland) mixer at setting 6. After incubation at 37° C. for 30 minutes in a shaking water bath, the homogenate was centrifuged 40,000×g for 10 minutes at 4° C. The pellets were resuspended in fresh buffer and centrifuged 3 more times before final suspension for use in the assay.\n(§5) (iii) [^3H]Ifenprodil Binding protocol:\n(§6) Triplicate incubations were carried out in a volume of 0.5 mL in 1.3 mL polypropylene tubes (Marsh Biomedical Products Inc, Rochester, N.Y.) for 2 hours at room temperature. Incubations contained invention compounds, membranes (100-200 μg protein) and 4 nM [^3H]-ifenprodil in 20 mM HEPES-KOH buffer, pH 7.4 (assay buffer). Assays were started by addition of the membranes. Bound radioligand was separated by filtration under reduced pressure using a TOMTEC Mach II, 96-well cell harvester (Tomtec Inc, Orange, Conn.). Filtration was through Whatman GF/B glass fiber filters (Whatman Ltd., Maidstone, England), which had been soaked for at least 15 minutes in 0.3% polyethylenimine and allowed to air dry. The filters were rinsed with 3 mL of ice cold assay buffer within 6 seconds. Air was allowed to pass through the filters for an additional 10 seconds to remove residual moisture. The filter mat was supported on a cold (−20° C.) TEFLON (E. I. Du Pont de Nemours and Company, Wilmington, Del.) coated support, and filters from individual wells were separated and placed in Mini Poly-Q vials (Becklman Instruments Inc, Fullerton, Calif.) and filled with 4 mL of scintillation cocktail (Beckman Ready Protein^+). Radioactivity retained on the filter was determined by liquid scintillation spectrophotometry. Nonspecific binding was defined as the binding in the presence of […] ifenprodil. Ninety percent of the total binding of ifenprodil was specific binding at the NR1A/NR2B NMDA receptor subtype active site (as opposed to binding at a remote site).\n(§7) Binding curves were statistically analyzed for a best 1- or 2-site competition fit using GRAPHPAD PRISM software (GraphPad Software Inc, San Diego, Calif.), a computer program used to analyze and graph scientific data. The normalized data was fitted by nonweighted nonlinear regression to either [formula]\n(§8) Control data was entered as 100%, and no parameters were constrained. […]", "units": {"IC50": "µM"}}
{"smiles": "O=c1[nH]c2ccc(C3=NOC(CN4CCC(Cc5ccc(F)cc5)CC4)C3)cc2o1", "note": "(racemic) [Example 3, 6-{5-[4-(4-Fluorobenzyl)piperidin-1-ylmethyl]-4,5-dihydroisoxazol-3-yl}-3H-benzoxazol-2-one hydrochloride]", "IC50": 0.03}
{"target": "T1, NR1A/NR2B NMDA receptor subtype", "test": "[3H]Ifenprodil binding assay (IFPNR), rat forebrain membranes", "details": "Table 2, 4 nM [3H]-ifenprodil, read-out: IFPNR IC50 μm", "method": "as §1, §2, §3, §4, §5, §6, §7, §8", "units": {"IC50": "µM"}}
{"smiles": "O=c1[nH]c2ccc(-c3cnc(CN4CCC(Cc5ccc(F)cc5)CC4)o3)cc2s1", "note": "[Example 9, 6-{2-[4-(4-Fluorobenzyl)piperidin-1-ylmethyl]oxazol-5-yl}-3H-benzothiazol-2-one]", "IC50": "> 1"}
{"smiles": "O=C1Cc2cc(-c3cnc(CN4CCC(Cc5ccccc5)CC4)o3)ccc2N1", "note": "[Example 11, 5-[2-(4-Benzylpiperidin-1-ylmethyl)oxazol-5-yl]-1,3-dihydroindol-2-one]", "IC50": "> 1"}
{"smiles": "O=c1[nH]c2ccc(C3=NCC(CN4CCC(Cc5ccc(F)cc5)CC4)S3)cc2o1", "note": "(centres unmarked) [Example 12, 6-{5-[4-(4-Fluorobenzyl)piperidin-1-ylmethyl]-4,5-dihydrothiazol-2-yl}-3H-benzoxazol-2-one]", "IC50": 0.394}
{"smiles": "O=c1[nH]c2ccc(-c3cnc(CN4CCC(Cc5ccccc5)CC4)o3)cc2o1", "note": "[Example 10, 6-[2-(4-Benzylpiperidin-1-ylmethyl)oxazol-5-yl]-3H-benzoxazol-2-one]", "IC50": "> 1"}
{"smiles": "S=c1[nH]c2ccc(-c3cnc(CN4CCC(Cc5ccccc5)CC4)s3)cc2[nH]1", "note": "[Example 8, 5-[2-(4-Benzylpiperidin-1-ylmethyl)thiazol-5-yl]-1,3-dihydrobenzimidazole-2-thione]", "IC50": 0.066}
{"smiles": "O=c1[nH]c2ccc(-c3cnc(CN4CCC(Cc5ccc(F)cc5)CC4)s3)cc2s1", "note": "[Example 7, 6-{2-[4-(4-Fluorobenzyl)piperidin-1-ylmethyl]thiazol-5-yl}-3H-benzothiazol-2-one]", "IC50": 0.45}
{"smiles": "O=c1[nH]c2ccc(-c3cnc(CN4CCC(Cc5ccc(F)cc5)CC4)s3)cc2o1", "note": "[Example 6, 6-{2-[4-(4-Fluorobenzyl)piperidin-1-ylmethyl]thiazol-5-yl}-3H-benzoxazol-2-one]", "IC50": 0.54}
{"smiles": "O=c1[nH]c2ccc(C3=NCC(CN4CCC(Cc5ccccc5)CC4)S3)cc2o1", "note": "(centres unmarked) [Example 13, 6-[5-(4-Benzylpiperidin-1-ylmethyl)-4,5-dihydrothiazol-2-yl]-3H-benzoxazol-2-one]", "IC50": 0.101}
{"target": "T1, NR1A/NR2B NMDA receptor subtype", "test": "[3H]Ifenprodil binding assay (IFPNR), rat forebrain membranes", "details": "Table 3, 4 nM [3H]-ifenprodil, read-out: IFPNR IC50", "method": "as §1, §2, §3, §4, §5, §6, §7, §8", "units": {"IC50": "µM"}}
{"smiles": "O=c1[nH]c2ccc(C3=NOC(CN4CCC(O)(Cc5ccccc5)CC4)C3)cc2o1", "note": "(centres unmarked) [Example 17, 6-[5-(4-Benzyl-4-hydroxypiperidin-1-ylmethyl)-4,5-dihydroisoxazol-3-yl]-3H-benzoxazol-2-one]", "IC50": 0.006}
{"smiles": "O=c1[nH]c2ccc(C3=NOC(CN4CCC(O)(Cc5ccc(F)cc5)CC4)C3)cc2o1", "note": "(centres unmarked) [Example 20, 6-{5-[4-(4-Fluorobenzyl)-4-hydroxypiperidin-1-ylmethyl]-4,5-dihydroisoxazol-3-yl}-3H-benzoxazol-2-one]", "IC50": 0.008}
{"smiles": "Cc1noc(CN2CCC(Cc3ccccc3)CC2)c1-c1ccc2[nH]c(=O)oc2c1", "note": "[Example 2, 6-[5-(4-Benzylpiperidin-1-ylmethyl)-3-methylisoxazol-4-yl]-3H-benzoxazol-2-one]", "IC50": "> 1"}
{"smiles": "O=c1[nH]c2ccc(C3=NOC(CCN4CCC(Cc5ccc(F)cc5)CC4)C3)cc2o1", "note": "(centres unmarked) [Example 19, 6-(5-{2-[4-(4-Fluorobenzyl)piperidin-1-yl]ethyl}-4,5-dihydroisoxazol-3-yl)-3H-benzoxazol-2-one]", "IC50": 0.4}
{"target": "T1, NR1A/NR2B NMDA receptor subtype", "test": "[3H]Ifenprodil binding assay (IFPNR), rat forebrain membranes", "details": "Table 4, 4 nM [3H]-ifenprodil, read-out: IFPNR IC50", "method": "as §1, §2, §3, §4, §5, §6, §7, §8", "units": {"IC50": "µM"}}
{"smiles": "O=c1[nH]c2ccc(C3=NOC(CN4CCC([S+]([O-])c5ccc(F)cc5)CC4)C3)cc2o1", "note": "(centres unmarked) [Example 29, 6-{5-[4-(4-Fluorobenzenesulfinyl)piperidin-1-ylmethyl]-4,5-dihydroisoxazol-3-yl}-3H-benzoxazol-2-one]", "IC50": 0.6}
{"smiles": "O=c1[nH]c2ccc(C3=NOC(CN4CCC(C(O)c5ccc(F)cc5)CC4)C3)cc2o1", "note": "(centres unmarked) [Example 31, 6-(5-{4-[(4-Fluorophenyl)hydroxymethyl]piperidin-1-ylmethyl}-4,5-dihydroisoxazol-3-yl)-3H-benzoxazol-2-one]", "IC50": "> 1"}
{"target": "T1, NR1A/NR2B NMDA receptor subtype", "test": "[3H]Ifenprodil binding assay (IFPNR), rat forebrain membranes", "details": "Table 5, 4 nM [3H]-ifenprodil, read-out: IFPNR IC50", "method": "as §1, §2, §3, §4, §5, §6, §7, §8", "units": {"IC50": "µM"}}
{"smiles": "O=c1[nH]c2ccc(C3=NOC(CN4CCC(Cc5ccc(F)cc5)CC4)C3)cc2s1", "note": "(centres unmarked) [Example 16]", "IC50": 0.002}
{"smiles": "O=c1[nH]c2ccc(C3=NOC(CN4CC[C@@H](Cc5ccc(F)cc5)[C@@H](O)C4)C3)cc2o1", "note": "(stereo in doubt) [Example 26, 6-{5-[4-(4-Fluorobenzyl)-3-hydroxypiperidin-1-ylmethyl]-4,5-dihydroisoxazol-3-yl}-3H-benzoxazol-2-one]", "IC50": 0.023}
